# How the values were obtained:
# cardiomyocytes = test: RT-qPCR of cardiomyocytes isolated from doxorubicin-treated mice; format: in vivo, mouse
# Procedure: Isolation of cardiomyocytes from mouse heart was carried out with Langendorff perfusion apparatus according to the standard protocol described above. Total RNA extraction was performed with TRIZOL Reagent (Invitrogen) and purification with RNeasy Mini Kit (QIAGEN) according the manufacturer's protocol. The concentration of RNA obtained was measured using a super-sensitive NanoDrop ND1000 spectrophotometer (Thermo Scientific). Reverse transcription reaction was performed by using the High Capacity RNA-to-cDNA Kit (Applied Biosystem). In brief, cDNA was generated from 1 μg of RNA by RT Enzyme Mix according to the manufacturer's instructions on a PCR thermocycler (S1000TM Thermal Cycler, BIO-RAD, USA). The resulting cDNA was diluted to a final concentration of 50 ng/μl for PCR amplification. Real time quantitative PCR was carried out by using a 7900HT Fast Real-Time PCR System (Applied Biosystems). Mouse TaqMan® Gene primers and probes (FAM, Applied Biosystem), were used in PCR amplification. Mouse GAPDH was used as internal control (VIC®/MGB Probe, Primer Limited, Applied Biosystem). The following TaqMan® Gene primers/probes were used Sdha (Mm01352366_m1), ATP5a1: (Mm00431960_m1), Ndufa3 (Mm01329704_g1), Ppargcla (PGC-1α, Mm01208835_m1), Ppargc1b (PGC-1β, Mm00504720_m1), Esrra (EER, Mm00433143_m1), Trp53inp1 (Mm00458141_m1), Fas: (Mm00433237_m1), Apaf1 (Mm01223702_m1), Bax (Mm00432051_m1), Mdm2 (Mm01233136_m1), and GAPDH: Mouse GAPD (GAPDH) Endogenous Control (VIC®/MGB Probe, Primer Limited). Comparative analyses of each gene were performed using company-provided softwares, SDS2.4 and RQ Manager 1.2.1 (Applied Biosystems). All amplifications were carried out at least in duplicates. The mRNA expression levels of each gene were calculated by using the 2-ΔΔCt (comparative threshold cycle) method, as detailed by the manufacturer (Applied Biosystems).
# [1] = test system: DNA double strand breaks in the heart; test: Detection of DNA double strand breaks (γ-H2AX staining) in heart sections; format: in vivo, mouse; settings: acute doxorubicin 25 mg/kg, 16 h
# Procedure: After mice were sacrificed, hearts were perfused with ice-cold PBS, quickly removed, embedded in OCT compound (Fisher Scientific), and snap-frozen in liquid nitrogen. The heart was sectioned to 5 μm-thick slices using a cryostat. Heart sections were stored at −80° C. until immunofluorescence staining was performed. Heart sections were rinsed with PBS at room temperature, fixed in BD Cytofix/Cytoperm solution (BD Biosciences) for 15 m, washed in PBS, and permeabilized in BD Perm/Wash solution for 30 m. Heart sections were first blocked with BSA (2 mg/ml) for 30 m, then incubated with an mouse monoclonal anti-γ-H2AX antibody conjugated with Alexa Fluor 555 (Clone N1-431, BD Biosciences) for 1 h. Nuclei were stained with DAPI (Sigma, 1 μg/ml PBS), and the slides were sealed for examination with an Olympus epifluorescence microscope (Model BX51). To quantify DSBs, the numbers of γ-H2AX-positive nuclei and the total nuclei were counted in 5 microscopic fields (400×) per section. For each mouse, five heart sections were counted to determine the percentage of γ-H2AX-positive nuclei.
# To further confirm the cardio-protective effect of Dex, DNA double strand breaks were assessed in heart tissues. Dexrazoxane (100 mg/kg) was injected (ip) 8 hrs prior to doxorubicin (25 mg/kg) treatment. Hearts were harvested 16 hr after doxorubicin treatment. The percentage of γH2AX-positive nuclei was counted in 5 fields (400×) in each heart section. Five sections were counted in each heart to determine the average percentage of γH2AX-positive nuclei.
# heart sections = test: Detection of apoptosis in heart sections (TUNEL assay); format: in vivo, mouse; settings: after acute doxorubicin treatment
# Procedure: Apoptosis was detected by using TUNEL assay on heart sections. Heart harvest, sectioning, and storage were described above. Heart sections were warmed to room temperature before the apoptotic nuclei were stained by using a commercially available kit (In Situ Cell Death Detection Kit, Cat. No. 12156792910, Roche Applied Science). The entire staining procedures were performed according to the manufacturer's instructions. The nuclei were stained with DAPI (Sigma) before the slides were sealed and examined with an Olympus epifluorescence microscope (Model BX51). The apoptotic nuclei and the total nuclei per heart section were counted at 200× magnification. The apoptotic nuclei in 5 heart sections of each mouse were counted and averaged.
# The cardio-protective effect of Dex against doxirubin-induced apoptosis was assessed in heart tissues. Dexrazoxane (100 mg/kg) was injected (ip) 8 hrs prior to doxorubicin (25 mg/kg) injection (ip). One group received only doxorubicin and a second group received only dexrazoxane. Hearts were harvested 16 hrs after doxorubicin treatment. The numbers of TUNEL-positive nuclei were counted in five fields in each heart section.
# HL-1 cells = test: PGC-1 expression in HL-1 cells by RT-qPCR; format: cell-based; settings: doxorubicin 1 μm for 2 or 4 hours
# Procedure: FIGS. 7a-e: a, b. PGC-1 expression in HL-1 cells. […] Expression was measured with RT-qPCR. c, d. CHiP analysis in HL-1 cells. HL-1 cardiomyocytes were treated with (right bars) or without (left bars) DOX ([…]) for 2 hrs and isolated for ChIP using the Top2β antibody. The eluted DNA and Input were PCR amplified to detect specific promoter regions represented in the schematic above the respective ChIP data. […] CHiP study in cardiomyocytes. Cardiomyocytes were isolated from control (n=4) and Dox-treated (n=4) mice and subject to ChIP with the Top2b antibody. The data represent real-time PCR ratios for the fold-enrichment of Top2b at the respective promoters.
# mouse heart = test: Cardiac MRI for measuring cardiac function after chronic doxorubicin; settings: mice, doxorubicin 5 mg/kg ip once a week for 5 weeks; decreased from 57% (Example 4, FIG. 13)
# Procedure: Before Cre induction, cardiac MRI scan was performed on each mouse to examine the baseline ejection fraction. Cardiomyocyte-specific Cre induction was carried out by treating mice with tamoxifen. […] Doxorubicin treatment (5 mg/kg, i.p., once a week for 5 weeks) was started 7 days after the second MRI scan. Two weeks after the last dose of doxorubicin, a third MRI scan was performed (FIG. 6a).
# Every mouse in the EF experiments received 3 MRI scans, i.e., a baseline scan, a second scan 2 weeks after the end of tamoxifen treatment, and a third scan 2 weeks after the last dose of doxorubicin. […] Mice were anesthetized with isoflurane (2.5% in 97.5% O2), and scanned on a 7.0 T Biospec small animal scanner (Bruker Biospin Inc., Billerica, Mass.). Imaging gradients with 60 mm inner diameter (ID) were used with a 35 mm ID linear birdcage-style volume resonator. T1-weighted anatomic reference images were acquired using a three dimension (3D) fast low-angle shot (FLASH) gradient echo sequence. A retrospectively gated FLASH pulse sequence was used to acquire cardiac cine images with excellent contrast between bright blood and adjacent myocardium. To measure volumetric left ventricular ejection fraction (LVEF), at least 6 short axis images were scanned at 1 mm interval from the apex to the base of the heart. End-diastolic (ED) and end-systolic (ES) left ventricular volumes were obtained by the biplane area length method, and LVEF was calculated with the equation: [(ED-ES)/ED]/100.
# Two weeks after completion of tamoxifen treatment mice were treated with doxorubicin or drug vehicle. Two cohorts of mice were treated with different schedules. […] To evaluate the chronic effect of doxorubicin on cardiac function, doxorubicin (5 mg/kg, i.p.) was administered once a week for 5 weeks, and cardiac function was examined 2 weeks after the last dose of doxorubicin by using MRI.
# The effect of chronic doxorubicin treatment (5 mg/kg, ip, once a week for 5 weeks) was evaluated for its effect on ejection fraction.
# [2] = Top2b+/+ cardiomyocytes, 16 hrs after doxorubicin 25 mg/kg i.p.
compound,measurement,setting,value
COc1cccc2c1C(=O)c1c(O)c3c(c(O)c1C2=O)C[C@@](O)(C(=O)CO)C[C@@H]3O[C@H]1C[C@H](N)[C@H](O)[C@H](C)O1 [doxorubicin],"Transcript of Apaf1, Bax, and Fas (apoptosis pathway genes)",cardiomyocytes; [2],increases
same,Up-regulation of the transcript encoding p53DINP1 (TP53INP1),cardiomyocytes; [2],200 fold
same,Genes involved in mitochondrial biogenesis (RT-qPCR),"cardiomyocytes; Top2b+/+ hearts, chronic doxorubicin 5 mg/kg once a week for 5 weeks",Reduction of genes involved in mitochondrial biogenesis
same,"Transcripts of Ndufa3, Sdha and Atp5a (electron transport chain)","cardiomyocytes; doxorubicin treated Top2b+/+ cardiomyocytes, 72 h, much less so in Top2bΔ/Δ",decreased
same,Erra transcript,"cardiomyocytes; doxorubicin-treated wild type cardiomyocytes, 72 h, not in Top2b-deleted",down-regulated
same,DSBs in the nuclei (γ-H2AX-positive nuclei),[1]; Top2b+/+ mice,caused DSBs
same,Reduction of doxorubicin-caused DSBs in Top2bΔ/Δ mice versus Top2b+/+ mice,[1],60%
same,Reduction of TUNEL-positive nuclei in hearts of Top2bΔ/Δ mice compared with Top2b+/+ mice,heart sections,70%
same,Expression of PGC-1α,HL-1 cells,Reduced expression
same,Expression of PGC-1β,HL-1 cells,Reduced expression
same,Ejection fraction after treatment,mouse heart,45%

# — patent US9169509B2, “Topoisomerase 2b as a predictor of susceptibility to anthracycline-induced cardiotoxicity” (Board of Regents, The University of Texas System, priority 2013, dated 2015)
